Structures are written as SMILES.

By solubility is commonly meant the dissolved amount per volume that the medium holds. Read a low solubility as little dissolved substance.

One data set in a line: physchem. As for the experimental part: 1.9 mg of Form CSII was weighted into a glass vial, then water was added dropwise at 37° C. until the solid is completely dissolved. The maximum insoluble volume and minimum dissolved volume of the sample in water were recorded, and the solubility of Form CSII in water (mg/mL) was calculated.
The conditions of data set [1]: for Solubility in FaSSIF / Solubility in FeSSIF: 1 h. An excerpt: When solubility test is used to predict the in vivo performance of a drug, it is critical to simulate in vivo conditions as closely as possible. Fasted state simulated intestinal fluid (FaSSIF) and fed state simulated intestinal fluid (FeSSIF) can be used to simulate the conditions in vivo and predict the effects of eating, thus solubilities in these media are closer to those in vivo.
A certain amount of Form CSII and prior art Form A were suspended into FeSSIF and FaSSIF to get saturated solutions at 37° C. After equilibrated for 1 h, concentrations of the saturated solutions were measured by HPLC.
A certain amount of Form CSIII and Form A in the prior art were suspended into FeSSIF and FaSSIF to get saturated solutions at 37° C. After equilibrated for 1 h, concentrations of the saturated solutions were measured by HPLC.

Data set [2] in a line: Morphology by polarized light microscopy. The data set is classed as physicochemical. The note with it: PLM, magnification 100 times. As for the experimental part: PLM data in the present disclosure were acquired by Sunny CX40P polarizing microscope.
The parameter of the PLM method of the present disclosure is as follows: • Magnification times: 100
About 0.5 mg Form CSII and prior art Form A were placed on a glass slide, a small amount of immersion oil was added to disperse the sample, and then the system was covered with a coverslip.
About 0.5 mg Form CSIII and prior art Form A were placed on a glass slide, a small amount of immersion oil was added to disperse the sample, and then the system was covered with a coverslip.

A short description of data set [3]: Particle size distribution (Mastersizer 3000, wet mode). The data set is classed as physicochemical. As for the experimental part:
The particle size distribution data in the present disclosure were acquired by a Mastersizer 3000 laser particle size analyzer of Malvern. The test was carried out in wet mode, using a Hydro MV dispersion device, and the dispersant was Isopar G. The parameters are as follows:
Form CSII and prior art Form A were added into glass vials with the Isopar G (containing 0.2% lecithin). The mixture was mixed thoroughly and transferred into the Hydro MV dispersing device. The experiment was started when the obscuration is in appropriate range. The particle size distributions were tested before and after 60 seconds of ultrasonication to obtain the average particle size, D10 (the portion of particles with diameters below this value is 10%), D50 (the portion of particles with diameters below this value is 50%) and D90 (the portion of particles with diameters below this value is 90%), the results are listed in Table 9.

The nature of data set [4]: Density and flowability (bulk/tapped density, compressibility index). The note with it: for Compressibility index: c=(ρf−ρ0)/ρf; for Tapped density (ρf): tapped 1250 times. It counts as physicochemical. As for the experimental part:
About 300-500 mg of powder were added into a 5-mL measuring cylinder, and a bulk density was recorded. Then the powder was tapped for 1250 times by ZS-2E tap density tester to make it in the tightest state and the tapped volume was recorded. The bulk density (ρ0) and tapped density (ρf) were calculated.
Compressibility also known as the Compressibility index or Carr index is usually utilized to evaluate the flowability of powder or granules during the drug product process. Compressibility index was calculated according to c=(ρf−ρ0)/ρf. According to criteria of flowability recorded in ICH Q4B Annex 13, the smaller the compressibility index, the better the flowability.

A short description of data set [5]: Compressibility (tensile strength after compression at 3 KN). It counts as physicochemical. The note with it: 60 mg, Φ6 mm round tooling, T=2H/πDL. As for the experimental part: ENERPAC manual tablet press was used for compression. 60 mg of Form CSII and prior art Form A were weighed and added into the dies of a Φ6 mm round tooling, compressed at 3 KN manually, then stored at room temperature for 24 h until elastic recovery is complete, diameter (D) and thickness (L) were tested with a caliper. Hardness (H) was tested with an intelligent tablet hardness tester. Tensile strength of the powder was calculated with the following formula: T=2H/πDL. […] Under a certain force, the greater the tensile strength, the better the compressibility.

A short description of data set [6]: Physical stability upon mechanical force (tableting, XRPD). It counts as physicochemical. The note with it: 5 kN pressure for 10 s. The text has this:
A certain amount of Form CSII was compressed into a tablet under 5 kN pressure with the dies of a Φ6 mm round tooling by the manual tablet press, and the tablet was kept under 5 kN pressure for 10 s. Crystalline form before and after tableting were checked by XRPD.

Data set [7] can be described thus: Stability of drug substance on storage (XRPD, HPLC). The data set is classed as physicochemical. As for the experimental part:
A certain amount of Form CSII were stored under different conditions of 25° C./60% RH and 40° C./75% RH after packing with different conditions listed in Table 11. Crystalline forms and chemical purities were checked by XRPD and HPLC, respectively.
Sealed with desiccants and antioxidants: Put a sample into a glass vial, cover the vial with aluminum foil, and punch holes in the foil, then seal the glass vial with 2 g silica gel desiccants and 2.2 g antioxidants in an aluminum foil bag.
A certain amount of Form CSIII were stored under different conditions of 25° C./60% RH, 40° C./75% RH and 60° C./75% RH after packing with different conditions listed in Table 16. Crystalline forms were checked by XRPD.
Sealed with desiccants and antioxidants: Put a sample into a glass vial, cover the vial with aluminum foil, and punch holes in the foil, then seal the glass vial with 2 g silica gel desiccant and 2.2 g antioxidant in an aluminum foil bag.

Data set [8] can be described thus: Stability of crystalline form in formulation process (XRPD). It counts as physicochemical. The note with it: pre-blending, simulated dry granulation, tableting 5 kN. As for the experimental part:
The XRPD of the blank mixed powder and the samples before and after the formulation was tested.

Setting [9] is: 25° C./60% RH, sealed with desiccant and antioxidant.
Setting [10] is: 40° C./75% RH, sealed with desiccant and antioxidant.

On to `Br.Br.CCC[C@H](N[C@H]1CCc2cc(F)cc(F)c2C1)C(=O)Nc1cn(C(C)(C)CNCC(C)(C)C)cn1` [Form A, (S)-2-(((S)-6,8-difluoro-1,2,3,4-tetrahydronaphthalen-2-yl)amino)-N-(1-(2-methyl-1-(neopentylamino)propan-2-yl)-1H-imidazol-4-yl) pentanamide, reference compound], for which the “Solubility in water, class by standards of Chinese Pharmacopoeia and United States Pharmacopoeia” value in the data set “physchem” was “slightly soluble”. Besides, in data set [1], the “Solubility in FaSSIF” value came out at 6.7 and the “Solubility in FeSSIF” value is on record as 7.6. In addition, the Morphology entry in data set [2] was “agglomerates”. In [3] (ultrasonication time 0 s), this molecule had an Average particle size of 646 μm, a D10 of 21.2 μm, a D50 of 415 μm and a D90 of 1640 μm. In data set [3] (ultrasonication time 60 s), the Average particle size was determined as 629 μm, the D10 was determined as 14.4 μm, the D50 was determined as 356 μm and the D90 worked out at 1660 μm. Also, in [4], the “Bulk density (ρ0)” value turned out to be 0.251 g/mL, the Compressibility index came to 10.8% and the “Tapped density (ρf)” value is 0.282 g/mL. Further, the Tensile strength in data set [5] is reported as 0.37 MPa.
On to `Br.Br.CCC[C@H](N[C@H]1CCc2cc(F)cc(F)c2C1)C(=O)Nc1cn(C(C)(C)CNCC(C)(C)C)cn1` [Form CSII, (S)-2-(((S)-6,8-difluoro-1,2,3,4-tetrahydronaphthalen-2-yl)amino)-N-(1-(2-methyl-1-(neopentylamino)propan-2-yl)-1H-imidazol-4-yl) pentanamide], for which the “Solubility in water, times that of Form A” value in “physchem” is 3-5 times. The same molecule gave a solubility in the data set “physchem” (37 °C, water, thermodynamic from solid) of 19 to 38 mg/mL. Moreover, in data set [1], the “Solubility in FaSSIF, times that of prior art Form A” value stood at 1.5 times; the “Solubility in FeSSIF, times that of prior art Form A” value stood at 1.5 times; the “Solubility in FaSSIF” value came to 9.8; the “Solubility in FeSSIF” value came to 11.7. Besides, the Morphology entry in data set [2] was “uniform plate crystalline form”. In data set [3] (ultrasonication time 0 s), this molecule registered an Average particle size of 198 μm, a D10 of 21.9 μm, a D50 of 157 μm and a D90 of 435 μm. In data set [3] (ultrasonication time 60 s), this molecule registered an Average particle size of 119 μm, a D10 of 10.3 μm, a D50 of 81.7 μm and a D90 of 282 μm. Also, in data set [4], the “Bulk density (ρ0)” value amounted to 0.49 g/mL, the Compressibility index was 5.3% and the “Tapped density (ρf)” value was determined as 0.51 g/mL. Also, the Tensile strength in [5] stood at 0.68 MPa. In addition, the “Crystalline form after tableting” value in [6] is recorded as “remains stable after tableting”. This molecule also came in with a Purity after storage in data set [7] (25° C./60% RH, 9 months, sealed with desiccants and antioxidants, HPLC) of 99.43%. In addition, in data set [7] (setting [9]), the “Time the form keeps stable” value was “at least 9 months”. In addition, the Purity after storage in data set [7] (40° C./75% RH, 6 months, sealed with desiccants and antioxidants, HPLC) turned out to be 99.42%. In addition, in data set [7] (setting [10]), the “Time the form keeps stable” value was “at least 6 months”. In data set [7] (initial, HPLC), this molecule registered a Purity of 99.37%. In data set [8], the “Crystalline form after formulation process” value was “remains stable after the formulation process”.
In the case of `Br.Br.CCC[C@H](N[C@H]1CCc2cc(F)cc(F)c2C1)C(=O)Nc1cn(C(C)(C)CNCC(C)(C)C)cn1` [Form CSIII, (S)-2-(((S)-6,8-difluoro-1,2,3,4-tetrahydronaphthalen-2-yl)amino)-N-(1-(2-methyl-1-(neopentylamino)propan-2-yl)-1H-imidazol-4-yl) pentanamide], in data set [1], the “Solubility in FaSSIF, times that of prior art Form A” value was determined as 1.3 times; the “Solubility in FeSSIF, times that of prior art Form A” value was 1.5 times; the “Solubility in FaSSIF” value stood at 8.7; the “Solubility in FeSSIF” value is listed as 11.7. The Morphology entry in [2] is reported as “uniform plate crystalline form”. Moreover, the “Time the form keeps stable” value in data set [7] (setting [9]) is on record as “at least 3 months”. Also, the “Time the form keeps stable” value in [7] (setting [10]) is “at least 3 months”. Moreover, in data set [7] (60° C./75% RH, sealed with desiccants and antioxidants), the “Time the form keeps stable” value is on record as “at least 2 months”.

Source of the values: patent US20240425460A1, “CRYSTAL FORM OF NIROGACESTAT DIHYDROBROMIDE, AND PREPARATION METHOD THEREFOR, AND USE THEREOF” (CRYSTAL PHARMACEUTICAL (SUZHOU) CO., LTD., priority 2022, published 2024).
